Reference: PMC4172917, “Synergy of crude enzyme cocktail from cold-adapted Cladosporium cladosporioides Ch2-2 with commercial xylanase achieving high sugars yield at low cost” (Biotechnology for Biofuels, 2014)

Tests used:
laccase = conditions: optimal conditions (15°C, pH 3.5), but b56 states 28°C and 10 to 40 mmol/L substrate; sodium acetate buffer
[1] = tested on: T1, MIP (manganese-independent peroxidase); assay: initial rates, oxidation of DMP at […] nm; assay type: biochemical, Cladosporium cladosporioides; conditions: without H2O2 and Mn2+; optimal conditions (20°C, pH 2.5), but b56 states 28°C and 10 to 40 mmol/L substrate; malonate buffer; compound identity doubtful: DMP is spelt out as dimethyl phthalate
T1 construct: native enzyme purified from culture supernatant (ammonium sulfate, DEAE-Sephadex A 50, CM-Sephadex C 50, Sephadex G-75); about 47 kDa by SDS-PAGE

Row | SMILES | Km (laccase) | Km [1]
1 | CCn1c(=NN=c2sc3cc(S(=O)(=O)O)ccc3n2CC)sc2cc(S(=O)(=O)O)ccc21 [ABTS] | 2.8 µM | 
2 | COc1cccc(OC)c1O [DMP] |  | 6.9 µM
